Literature values in EP2251003A2, “Ophthalmic Compositions for the Re-epithelialization, Healing and Disinfection of the Eye Tissues” (priority 2009, dated 2010).
Where two headings read alike, the source gives them in different places.

Assays:
[1] = rat, more recent studies
[2] = topical use, reported in the literature
eye of the rabbit [3] = details: topical
[4] = mouse
[5] = 50 mg/kg/day administered orally to rats, subchronic
cornea of the rabbit = details: administered to the cornea of the rabbit
[6] = 1 g/kg/day, rat
[7] = 1.5 g/kg/day administered for 90 days
[8] = in vivo
[9] = eyedrops containing dexpanthenol
fibroblast = details: in vitro
eye of the rabbit [10] = details: 5% ophthalmic solution, topical application

**Q.** Which results are given for N=C(N)c1ccc(OCCCCCCOc2ccc(C(=N)N)cc2)cc1 [hexamidine diisethionate]?
**A.** oral acute toxicity, expressed as LD50 [1]: 750 mg/kg; cases of sensitisation [2]: nine cases out of millions of subjects; eye irritation (eye of the rabbit [3]; aqueous solutions containing 0.10-0.11%): slight, transient irritation; eye irritation (eye of the rabbit [3]; concentration of 0.050%): no reaction; intraperit. LD50 ([4]; intraperitoneal): 1060 mg/kg; oral LD Lo ([4]; oral): 100 mg/kg; oral LD50 ([4]; oral, Toxicology and Applied Pharmacology 1975): 280 mg/kg; oral acute toxicity, expressed as LD50 ([4]; oral, more recent studies): 710 to 2500 mg/kg; toxic effect [5]: did not show any toxic effect

**Q.** For CS(C)(=O)=O [MSM, Methylsulphonylmethane], which “intraocular absorption of other substances” value (cornea of the rabbit) is on record?
**A.** promotes intraocular absorption of disodium edetate and other substances

**Q.** What about the “toxic effects on fertility, gestation and neonatal development” value [6] of the same compound?
**A.** absence of toxic effects

**Q.** And the toxic effect [7]?
**A.** do not have any toxic effect

**Q.** What about the “absorption and urinary elimination” value [8] of the same compound?
**A.** rapid absorption and rapid urinary elimination

**Q.** Which results are given for CC(C)(CO)[C@@H](O)C(=O)NCCCO [dexpanthenol]?
**A.** ocular tolerability [9]: excellent; fibroblast proliferation (fibroblast): activation of fibroblast proliferation; extent and time of re-epithelialisation of the corneal endothelium (eye of the rabbit [10]): significantly stimulated
